For orientation: IC50 means the point on the concentration scale where inhibition reaches its midpoint.

SMILES strings stand for the structures.

The target of the assay is T1, recombinant human Estrogen Receptor alpha ligand binding domain, residues 307-554 (ER alpha-LBD (GST)) (Homo sapiens, UniProt P03372).
T1 construct: made in house
T1 sequence (P03372 307-554): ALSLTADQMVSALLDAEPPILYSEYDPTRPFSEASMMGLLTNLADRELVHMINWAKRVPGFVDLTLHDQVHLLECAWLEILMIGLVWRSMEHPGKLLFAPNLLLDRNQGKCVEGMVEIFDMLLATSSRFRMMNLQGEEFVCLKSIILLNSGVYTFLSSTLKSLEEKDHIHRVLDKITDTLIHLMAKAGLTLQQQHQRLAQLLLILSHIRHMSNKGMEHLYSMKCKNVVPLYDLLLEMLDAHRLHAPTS
Nature of the assay: ERα binding assay (LanthaScreen TR-FRET competition). Conditions: TR-FRET competition with Fluormone ES2 tracer, 4 hours at room temperature; single experiment or average of two or more. A general note: TR-FRET usually uses a lanthanide donor and a delayed reading to cut background.

Regarding `Cc1ncsc1-c1ccc(CNC(=O)[C@@H]2C[C@@H](O)CN2C(=O)[C@@H](NC(=O)COCCCCCNCCOc2cc(F)c([C@@H]3c4[nH]c5ccccc5c4C[C@@H](C)N3CC(C)(C)F)c(F)c2)C(C)(C)C)cc1` [Example 48, (2S,4R)-1-((S)-2-(2-((5-((2-(3,5-difluoro-4-((1R,3R)-2-(2-fluoro-2-methylpropyl)-3-methyl-2,3,4,9-tetrahydro-1H-pyrido[3,4-b]indol-1-yl)phenoxy)ethyl)amino)pentyl)oxy)acetamido)-3,3-dimethylbutanoyl)-4-hydroxy-N-(4-(4-methylthiazol-5-yl)benzyl)pyrrolidine-2-carboxamide], the 50% inhibitory concentration (IC50) is 1 nM.
To `Cc1ncsc1-c1ccc(CNC(=O)[C@@H]2C[C@@H](O)CN2C(=O)[C@@H](NC(=O)COCCOCCCCOc2cc(F)c([C@@H]3c4[nH]c5ccccc5c4C[C@@H](C)N3CC(C)(C)F)c(F)c2)C(C)(C)C)cc1` [Example 128, (2S,4R)-1-((S)-2-(2-(2-(4-(3,5-Difluoro-4-((1R,3R)-2-(2-fluoro-2-methylpropyl)-3-methyl-2,3,4,9-tetrahydro-1H-pyrido[3,4-b]indol-1-yl)phenoxy)butoxy)ethoxy)acetamido)-3,3-dimethylbutanoyl)-4-hydroxy-N-(4-(4-methylthiazol-5-yl)benzyl)pyrrolidine-2-carboxamide] belongs 0.6 nM.
On to `Cc1ncsc1-c1ccc(CNC(=O)[C@@H]2C[C@@H](O)CN2C(=O)[C@@H](NC(=O)COCc2cccc(COc3cc(F)c([C@@H]4c5[nH]c6ccccc6c5C[C@@H](C)N4CC(C)(C)F)c(F)c3)n2)C(C)(C)C)cc1` [Example 132, (2S,4R)-1-((S)-2-(2-((6-((3,5-Difluoro-4-((1R,3R)-2-(2-fluoro-2-methylpropyl)-3-methyl-2,3,4,9-tetrahydro-1H-pyrido[3,4-b]indol-1-yl)phenoxy)methyl)pyridin-2-yl)methoxy)acetamido)-3,3-dimethylbutanoyl)-4-hydroxy-N-(4-(4-methylthiazol-5-yl)benzyl)pyrrolidine-2-carboxamide], for which the IC50 was 0.5 nM.
As to `Cc1ncsc1-c1ccc(CNC(=O)[C@@H]2C[C@@H](O)CN2C(=O)[C@@H](NC(=O)COCC(F)(F)COCCCOc2cc(F)c([C@@H]3c4[nH]c5ccccc5c4C[C@@H](C)N3CC(C)(C)F)c(F)c2)C(C)(C)C)cc1` [Example 125, (2S,4R)-1-((S)-2-(2-(3-(3-(3,5-Difluoro-4-((1R,3R)-2-(2-fluoro-2-methylpropyl)-3-methyl-2,3,4,9-tetrahydro-1H-pyrido[3,4-b]indol-1-yl)phenoxy)propoxy)-2,2-difluoropropoxy)acetamido)-3,3-dimethylbutanoyl)-4-hydroxy-N-(4-(4-methylthiazol-5-yl)benzyl)pyrrolidine-2-carboxamide], the half-inhibitory concentration (IC50) amounted to 1 nM.
With `Cc1ncsc1-c1ccc(CNC(=O)[C@@H]2C[C@@H](O)CN2C(=O)[C@@H](NC(=O)COCc2ccnc(COc3cc(F)c([C@@H]4c5[nH]c6ccccc6c5C[C@@H](C)N4CC(C)(C)F)c(F)c3)c2)C(C)(C)C)cc1` [Example 134, (2S,4R)-1-((S)-2-(2-((2-((3,5-Difluoro-4-((1R,3R)-2-(2-fluoro-2-methylpropyl)-3-methyl-2,3,4,9-tetrahydro-1H-pyrido[3,4-b]indol-1-yl)phenoxy)methyl)pyridin-4-yl)methoxy)acetamido)-3,3-dimethylbutanoyl)-4-hydroxy-N-(4-(4-methylthiazol-5-yl)benzyl)pyrrolidine-2-carboxamide] the figure was 0.6 nM; with `Cc1ncsc1-c1ccc(CNC(=O)[C@@H]2C[C@@H](O)CN2C(=O)[C@@H](NC(=O)COCCCCC(=O)NCCOc2cc(F)c([C@@H]3c4[nH]c5ccccc5c4C[C@@H](C)N3CC(C)(C)F)c(F)c2)C(C)(C)C)cc1` [Example 142, (2S,4R)-1-((S)-2-(2-((5-((2-(3,5-Difluoro-4-((1R,3R)-2-(2-fluoro-2-methylpropyl)-3-methyl-2,3,4,9-tetrahydro-1H-pyrido[3,4-b]indol-1-yl)phenoxy)ethyl)amino)-5-oxopentyl)oxy)acetamido)-3,3-dimethylbutanoyl)-4-hydroxy-N-(4-(4-methylthiazol-5-yl)benzyl)pyrrolidine-2-carboxamide], 1.1 nM; with `Cc1ncsc1-c1ccc(CNC(=O)[C@@H]2C[C@@H](O)CN2C(=O)[C@@H](NC(=O)COCCOCCCCCOc2cc(F)c([C@@H]3c4[nH]c5ccccc5c4C[C@@H](C)N3CC(F)F)c(F)c2)C(C)(C)C)cc1` [Example 167, (2S,4R)-1-((S)-2-(2-(2-((5-(4-((1R,3R)-2-(2,2-Difluoroethyl)-3-methyl-2,3,4,9-tetrahydro-1H-pyrido[3,4-b]indol-1-yl)-3,5-difluorophenoxy)pentyl)oxy)ethoxy)acetamido)-3,3-dimethylbutanoyl)-4-hydroxy-N-(4-(4-methylthiazol-5-yl)benzyl)pyrrolidine-2-carboxamide], 0.9 nM.
Turning to `Cc1ncsc1-c1ccc(CNC(=O)[C@@H]2C[C@@H](O)CN2C(=O)[C@@H](NC(=O)COCCCCCCCCOc2ccc([C@@H]3c4[nH]c5ccccc5c4C[C@@H](C)N3CC(F)F)nc2)C(C)(C)C)cc1` [Example 13, (2S,4R)-1-((S)-2-(2-((8-((6-((1S,3R)-2-(2,2-Difluoroethyl)-3-methyl-2,3,4,9-tetrahydro-1H-pyrido[3,4-b]indol-1-yl)pyridin-3-yl)oxy)octyl)oxy)acetamido)-3,3-dimethylbutanoyl)-4-hydroxy-N-(4-(4-methylthiazol-5-yl)benzyl)pyrrolidine-2-carboxamide], the IC50 came out at 5 nM.
Take `Cc1ncsc1-c1ccc(CNC(=O)[C@@H]2C[C@@H](O)CN2C(=O)[C@@H](NC(=O)COCCOCCOCCOc2cc(F)c([C@@H]3c4[nH]c5ccccc5c4C[C@@H](C)N3C[C@H](C)CO)c(F)c2)C(C)(C)C)cc1` [Example 101, (2S,4R)-1-((S)-2-(tert-butyl)-14-(3,5-difluoro-4-((1R,3R)-2-((S)-3-hydroxy-2-methylpropyl)-3-methyl-2,3,4,9-tetrahydro-1H-pyrido[3,4-b]indol-1-yl)phenoxy)-4-oxo-6,9,12-trioxa-3-azatetradecanoyl)-4-hydroxy-N-(4-(4-methylthiazol-5-yl)benzyl)pyrrolidine-2-carboxamide]: the IC50 came out at 3.3 nM.
Turning to `Cc1ncsc1-c1ccc(CNC(=O)[C@@H]2C[C@@H](O)CN2C(=O)[C@@H](NC(=O)CCOCCCCCCCOc2cc(F)c([C@@H]3c4[nH]c5ccccc5c4C[C@@H](C)N3CC(C)(C)F)c(F)c2)C(C)(C)C)cc1` [Example 115, (2S,4R)-1-((S)-2-(3-((7-(3,5-difluoro-4-((1R,3R)-2-(2-fluoro-2-methylpropyl)-3-methyl-2,3,4,9-tetrahydro-1H-pyrido[3,4-b]indol-1-yl)phenoxy)heptyl)oxy)propanamido)-3,3-dimethylbutanoyl)-4-hydroxy-N-(4-(4-methylthiazol-5-yl)benzyl)pyrrolidine-2-carboxamide], the IC50 turned out to be 0.7 nM.
Regarding `Cc1ncsc1-c1ccc(CNC(=O)[C@@H]2C[C@@H](O)CN2C(=O)[C@@H](NC(=O)COCCCOCCCCCOc2cc(F)c([C@@H]3c4[nH]c5ccccc5c4C[C@@H](C)N3CC(C)(C)F)c(F)c2)C(C)(C)C)cc1` [Example 138, (2S,4R)-1-((S)-2-(2-(3-((5-(3,5-Difluoro-4-((R,3R)-2-(2-fluoro-2-methylpropyl)-3-methyl-2,3,4,9-tetrahydro-1H-pyrido[3,4-b]indol-1-yl)phenoxy)pentyl)oxy)propoxy)acetamido)-3,3-dimethylbutanoyl)-4-hydroxy-N-(4-(4-methylthiazol-5-yl)benzyl)pyrrolidine-2-carboxamide], the IC50 amounted to 0.6 nM.
For `Cc1ncsc1-c1ccc([C@H](C)NC(=O)[C@@H]2C[C@@H](O)CN2C(=O)[C@@H](NC(=O)COCCCCOCCCOc2cc(F)c([C@@H]3c4[nH]c5ccccc5c4C[C@@H](C)N3CC(C)(C)F)c(F)c2)C(C)(C)C)cc1` [Example 154, (2S,4R)-1-((S)-2-(2-(4-(3-(3,5-Difluoro-4-((1R,3R)-2-(2-fluoro-2-methylpropyl)-3-methyl-2,3,4,9-tetrahydro-1H-pyrido[3,4-b]indol-1-yl)phenoxy)propoxy)butoxy)acetamido)-3,3-dimethylbutanoyl)-4-hydroxy-N—((S)-1-(4-(4-methylthiazol-5-yl)phenyl)ethyl)pyrrolidine-2-carboxamide], the IC50 was 0.4 nM.
With `Cc1ncsc1-c1ccc(CNC(=O)[C@@H]2C[C@@H](O)CN2C(=O)[C@@H](NC(=O)COCCCCCCCCOc2cc(F)c([C@@H]3c4[nH]c5ccccc5c4C[C@@H](C)N3CC(C)(C)F)c(F)c2)C(C)(C)C)cc1` [Example 12, (2S,4R)-1-((S)-2-(2-((8-(3,5-Difluoro-4-((1R,3R)-2-(2-fluoro-2-methylpropyl)-3-methyl-2,3,4,9-tetrahydro-1H-pyrido[3,4-b]indol-1-yl)phenoxy)octyl)oxy)acetamido)-3,3-dimethylbutanoyl)-4-hydroxy-N-(4-(4-methylthiazol-5-yl)benzyl)pyrrolidine-2-carboxamide] the figure was 1.6 nM.
Turning to `Cc1ncsc1-c1ccc(CNC(=O)[C@@H]2C[C@@H](O)CN2C(=O)[C@@H](NC(=O)COCCOCCOCCOCCOc2cc(F)c([C@@H]3c4[nH]c5ccccc5c4C[C@@H](C)N3CC(C)(C)F)c(F)c2)C(C)(C)C)cc1` [Example 37, (2S,4R)-1-((S)-2-(tert-Butyl)-17-(3,5-difluoro-4-((1R,3R)-2-(2-fluoro-2-methylpropyl)-3-methyl-2,3,4,9-tetrahydro-1H-pyrido[3,4-b]indol-1-yl)phenoxy)-4-oxo-6,9,12,15-tetraoxa-3-azaheptadecanoyl)-4-hydroxy-N-(4-(4-methylthiazol-5-yl)benzyl)pyrrolidine-2-carboxamide], the 50% inhibitory concentration (IC50) was determined as 6.4 nM.

For the origin of these results see patent publication US10519152B2, “Compounds and their use in treating cancer” (AstraZeneca AB, priority 2017, dated 2019).
